Test results: patent US7199129B2, “Derivatives of morphine-like opioid compounds” (Monash University, priority 2001, dated 2007)
Values joined by “and” are separate entries in the source; they are usually repeats but may differ in a detail not shown here. Identical values can stand only once.

Tested on: ICR mice
Experiment: Phenylquinone-induced writhing model in mice (Example 16)
Format: in vivo
Conditions: IP; for No. of Writhings Individual: individual mice
Description: KRS-5-150 was evaluated for possible analgesic activity in the phenylquinone-induced writhing model in mice (Siegmund et al, 1957). A serial 2-fold dosage variance was used in the test, from 128 mg/kg to 1 mg/kg (8 doses in total). Groups of 3 male or female ICR mice weighing 22±2 g were employed. A serial 2-fold dosage variance was used in the test (8 doses in total). Variant doses (1, 2, 4, 8, 16, 32, 64 and 128 mg/kg) of test substances were administered intraperitoneally (IP). A vehicle of 2% Tween 80 in 0.9% NaCl was used for the intraperitoneal injection. The control group received vehicle alone. […] A reduction in the number of writhes by 50 percent or more (≧50%) relative to the vehicle-treated group indicated possible analgesic activity.

SMILES: Oc1ccc2c3c1O[C@H]1[C@@H](O)C=C[C@H]4[C@@H](C2)N(CCCNC(=Nc2ccccc2)Nc2ccccc2)CC[C@@]341 [KRS-5-150, (5α,6α)-7,8 didehydro-4,5-epoxy-17-(N,N′-bisphenylcarboxamidino-3-aminopropyl)morphinan,3,6-diol]
- % Inhibition (1 mg/kg, Table 1): 33%
- No. of Writhings Average (1 mg/kg, Table 1): 10
- No. of Writhings Individual (1 mg/kg, Table 1): 14 and 0 and 16
- % Inhibition (2 mg/kg, Table 1): 73%
- No. of Writhings Average (2 mg/kg, Table 1): 4
- No. of Writhings Individual (2 mg/kg, Table 1): 8 and 1 and 4
- % Inhibition (4 mg/kg, Table 1): 80%
- No. of Writhings Average (4 mg/kg, Table 1): 3
- No. of Writhings Individual (4 mg/kg, Table 1): 0 and 7 and 3
- % Inhibition (8 mg/kg, Table 1): 87%
- No. of Writhings Average (8 mg/kg, Table 1): 2
- No. of Writhings Individual (8 mg/kg, Table 1): 4 and 0 and 2
- % Inhibition (16 mg/kg, Table 1): 80%
- No. of Writhings Average (16 mg/kg, Table 1): 3
- No. of Writhings Individual (16 mg/kg, Table 1): 0 and 4 and 5
- % Inhibition (32 mg/kg, Table 1): 100%
- No. of Writhings Average (32 mg/kg, Table 1): 0
- No. of Writhings Individual (32 mg/kg, Table 1): 0 (2×) and 1
- % Inhibition (64 mg/kg, Table 1): 100%
- No. of Writhings Average (64 mg/kg, Table 1): 0
- No. of Writhings Individual (64 mg/kg, Table 1): 0
- died (animals of group of 3) (128 mg/kg, Table 1): 2/3 died
- No. of Writhings Individual (128 mg/kg, Table 1): 0
- analgesic activity (≧50% reduction in writhes) (doses of 64, 32, 16, 8, 4 and 2 mg/kg): Significant activity
